Each block holds one molecule with its values, some of them ahead of it.
Tests used:
[1] = test system: ATXN3/Q75 aggregation; assay: ATXN3/Q75-GFP aggregation, high-content analysis in Flp-In 293 cells; format: cell-based, human; conditions: at 100 nM
Excerpt: For therapies toward the polyQ diseases, we aimed to screen compounds potentially inhibiting polyQ aggregation. As removal of the N-terminal ATXN3 was required for ATXN3 aggregation, GFP-tagged ATXN3/Q14-75 C-terminal fragment was cloned to establish Flp-In 293 cells with inducible ATXN3/Q14-75-GFP expression. Refer to FIG. 2. The GFP antibody detected 40˜57 kDa ATXN3/Q14-75-GFP proteins in doxycycline (+Dox) induced ATXN3 cells. Refer to FIGS. 3A and 3B. While the expressed ATXN3/Q14 was primarily diffused, the expressed ATXN3/Q75-GFP formed aggregates. For high content aggregation analysis, these ATXN3/Q75 cells were seeded onto 96-well plate, treated with tested compounds WCt003, WCt006 and WCt021 for 8 hours, and doxycycline was added to induce ATXN3/Q75-GFP expression for 6 days. Oxaliplatin (5 μM, Sigma) was added for aggregate accumulation through inhibition of DNA synthesis. Then cells were stained with Hochest 33342 (0.1 μg/ml, Sigma) and aggregation percentage was assessed by high-content analysis (HCA) system, with excitation/emission wavelengths at 482/536 (GFP).
Refer to FIG. 4. Cells expressing ATXN3/Q75 were examined with tested compounds WCt003, WCt006 and WCt021. […] WCt003 and WCt006 reduced the ATXN3/Q75 aggregation to 80% to 84% at 10 nM and 100 nM, and WCt021 reduced the ATXN3/Q75 aggregation to 80% to 84% at 1 nM to 100 nM. […]

[2] = DPPH free radical scavenging assay; format: biochemical; conditions: absorbance at 517 nm
Excerpt: For DPPH (1,1-diphenyl-2-picryl hydrazyl) scavenging activity, the odd electron in the stable DPPH free radical gives a strong absorption maximum at 517 nm and is purple in color. The DPPH assay measured scavenging ability of the antioxidants towards the stable radical. The free radical DPPH was reduced when it reacted with antioxidants and results in decrease in absorbance at 517 nm. The degree of discoloration indicated the scavenging potential of the antioxidant compounds. Refer to FIG. 7.

[3] = SOD Assay Kit-WST, SOD(-like) activity; format: biochemical; conditions: WST-1 reduction
Excerpt: For SOD activity, SOD enzyme from human erythrocytes (Sigma, catalog number 59636) and HEK-293 cell lysate (5×10^6/ml) were used as comparison. The SOD Assay Kit-WST from Dojindo was used to determine SOD activity. The assay utilizes WST-1 [2-(4-iodophenyl)-3-(4-nitrophenyl)-5-(2,4)-disulfophenyl-2H-tetrazolium, monosodium salt] that produces a water-soluble formazan dye upon reduction with the superoxide anion. The rate of the reduction of WST-1 with O2^− was linearly related to the xanthine oxidase (XO) activity, and this reduction was inhibited by SOD. Therefore, the IC50 (50% inhibition activity of SOD or SOD-like materials) can be determined by the colorimetric method. Refer to FIG. 6A. […] Refer to FIG. 6B. […] Refer to FIG. 6C.

Molecule: O=C(CCCCCCC(=O)Nc1ccccc1)NO [SAHA, suberoylanilide hydroxamic acid]
ATXN3/Q75 aggregation as compared to untreated cells [1]: 85%

EC50 [2]: 26.7 µM
Molecule: O=c1c(O)c(-c2ccc(O)cc2)oc2cc(O)cc(O)c12 [kaempferol, reference compound]

Molecule: SOD enzyme from human erythrocytes: SOD enzyme from human erythrocytes (Sigma), used as comparison
IC50 (SOD activity) [3]: 0.38 U/ml
